According to patent US20240352010A1, “SUBSTITUTED 1,2,4-THIADIAZOLYL NICOTINAMIDES, SALTS OR N-OXIDES THEREOF AND THEIR USE AS HERBICIDALLY ACTIVE SUBSTANCES” (BayerAktiengesellschaft, priority 2021, published 2024):

Tests used:
Assay type in all cases: in vivo
[1] = tested on: Kochia scoparia (KCHSC); assay: Herbicidal post-emergence action, KCHSC
Text: (§1) Seeds of mono- and dicotyledonous weed plants were sown in plastic pots (double sowings with one species of mono- and one species of dicotyledonous weed plants per pot), in sandy loam, covered with soil and grown under controlled growth conditions. 2 to 3 weeks after sowing, the test plants were sprayed in the single-leaf stage. The compounds according to the invention, formulated in the form of wettable powders (WP) or as emulsifiable concentrates (EC), were sprayed onto the green plant parts as an aqueous suspension or as an emulsion, with the addition of 0.5% of an additive, at an application rate of 600 litres of water per hectare (converted). The test plants were placed in the greenhouse for ca. 3 weeks under optimum growth conditions, and then the effect of the preparations is assessed visually in comparison with untreated controls (herbicidal effect in percent (%): 100% effect=plants have died, 0% effect=as control plants). […]

[2] = tested on: Amaranthus retroflexus (AMARE); assay: Herbicidal pre-emergence action, AMARE
Text: (§2) Seeds of mono- and dicotyledonous weed plants were sown in plastic pots (double sowings with one species of mono- and one species of dicotyledonous weed plants per pot), in sandy loam, and covered with soil. The compounds according to the invention, formulated in the form of wettable powders (WP) or as emulsifiable concentrates (EC), were applied to the surface of the covering soil as an aqueous suspension or as an emulsion, with the addition of 0.5% of an additive, at an application rate of 600 litres of water per hectare (converted). Following treatment, the pots were placed in a greenhouse and kept under optimum growth conditions for the test plants. The visual grading of the damage to the test plants is carried out after ca. 3 weeks in comparison to untreated controls (herbicidal effect in percent (%): 100% effect=plants have died, 0% effect=as control plants). Seeds of mono- and dicotyledonous weed plants were sown in plastic pots (double sowings with one species of mono- and one species of dicotyledonous weed plants per pot), in sandy loam, and covered with soil. The compounds according to the invention, formulated in the form of wettable powders (WP) or as emulsifiable concentrates (EC), were applied to the surface of the covering soil as an aqueous suspension or as an emulsion, with the addition of 0.5% of an additive, at an application rate of 600 litres of water per hectare (converted). Following treatment, the pots were placed in a greenhouse and kept under optimum growth conditions for the test plants. The visual grading of the damage to the test plants is carried out after ca. 3 weeks in comparison to untreated controls (herbicidal effect in percent (%): 100% effect=plants have died, 0% effect=as control plants).

[3] = tested on: Setaria viridis (SETVI); assay: Herbicidal pre-emergence action, SETVI
Text: as §2

[4] = tested on: Digitaria sanguinalis (DIGSA); assay: Herbicidal pre-emergence action, DIGSA
Text: as §2

[5] = tested on: Poa annua (POAAN); assay: Herbicidal pre-emergence action, POAAN
Text: as §2

[6] = tested on: Abutilon theophrasti (ABUTH); assay: Herbicidal post-emergence action, ABUTH; details: 1280 g/ha, assessed visually after ca. 3 weeks vs untreated controls (Table B1)
Text: (§3) Seeds of mono- and dicotyledonous weed plants were sown in plastic pots (double sowings with one species of mono- and one species of dicotyledonous weed plants per pot), in sandy loam, covered with soil and grown under controlled growth conditions. 2 to 3 weeks after sowing, the test plants were sprayed in the single-leaf stage. The compounds according to the invention, formulated in the form of wettable powders (WP) or as emulsifiable concentrates (EC), were sprayed onto the green plant parts as an aqueous suspension or as an emulsion, with the addition of 0.5% of an additive, at an application rate of 600 litres of water per hectare (converted). The test plants were placed in the greenhouse for ca. 3 weeks under optimum growth conditions, and then the effect of the preparations is assessed visually in comparison with untreated controls (herbicidal effect in percent (%): 100% effect=plants have died, 0% effect=as control plants).

[7] = tested on: Matricaria inodora (MATIN); assay: Herbicidal post-emergence action, MATIN
Text: as §1

[8] = tested on: Alopecurus myosuroides (ALOMY); assay: Herbicidal post-emergence action, ALOMY; details: 1280 g/ha, assessed visually after ca. 3 weeks vs untreated controls (Table B2)
Text: as §3

[9] = tested on: Setaria viridis (SETVI); assay: Herbicidal post-emergence action, SETVI
Text: as §1

[10] = tested on: Alopecurus myosuroides (ALOMY); assay: Herbicidal pre-emergence action, ALOMY; details: 1280 g/ha, visual grading after ca. 3 weeks vs untreated controls (Table A12)
Text: Seeds of mono- and dicotyledonous weed plants were sown in plastic pots (double sowings with one species of mono- and one species of dicotyledonous weed plants per pot), in sandy loam, and covered with soil. The compounds according to the invention, formulated in the form of wettable powders (WP) or as emulsifiable concentrates (EC), were applied to the surface of the covering soil as an aqueous suspension or as an emulsion, with the addition of 0.5% of an additive, at an application rate of 600 litres of water per hectare (converted). Following treatment, the pots were placed in a greenhouse and kept under optimum growth conditions for the test plants. The visual grading of the damage to the test plants is carried out after ca. 3 weeks in comparison to untreated controls (herbicidal effect in percent (%): 100% effect=plants have died, 0% effect=as control plants).

[11] = 320 g/ha, assessed visually after ca. 3 weeks vs untreated controls (Table D1)
[12] = 1280 g/ha, assessed visually after ca. 3 weeks vs untreated controls (Table B4)
[13] = 320 g/ha, visual grading after ca. 3 weeks vs untreated controls (Table C8)
[14] = 1280 g/ha, visual grading after ca. 3 weeks vs untreated controls (Table A11)
[15] = 320 g/ha, visual grading after ca. 3 weeks vs untreated controls (Table C5)
[16] = 1280 g/ha, visual grading after ca. 3 weeks vs untreated controls (Table A8)
[17] = 1280 g/ha, visual grading after ca. 3 weeks vs untreated controls (Table A2)
[18] = 320 g/ha, visual grading after ca. 3 weeks vs untreated controls (Table C4)
[19] = 1280 g/ha, visual grading after ca. 3 weeks vs untreated controls (Table A7)
[20] = 320 g/ha, assessed visually after ca. 3 weeks vs untreated controls (Table D2)
[21] = 1280 g/ha, assessed visually after ca. 3 weeks vs untreated controls (Table B6)

O=C(Nc1ncns1)c1c(C2CC2)ccnc1Cl [Example I-003, 2-chloro-4-cyclopropyl-N-(1,2,4-thiadiazol-5-yl)pyridine-3-carboxamide]
herbicidal effect in percent, KCHSC [1, 11]: 90%
herbicidal effect in percent, KCHSC [1, 12]: 100%
herbicidal effect in percent, AMARE [2, 13]: 90%
herbicidal effect in percent, AMARE [2, 14]: 100%
herbicidal effect in percent, SETVI [3, 15]: 100%
herbicidal effect in percent, SETVI [3, 16]: 100%
herbicidal effect in percent, DIGSA [4, 17]: 90%
herbicidal effect in percent, POAAN [5, 18]: 90%
herbicidal effect in percent, POAAN [5, 19]: 100%
herbicidal effect in percent, ABUTH [6]: 90%
herbicidal effect in percent, MATIN [7, 20]: 90%
herbicidal effect in percent, MATIN [7, 21]: 100%

O=C(Nc1ncns1)c1c(C2CC2)ccnc1F [Example I-005]
herbicidal effect in percent, KCHSC [1, 11]: 100%
herbicidal effect in percent, KCHSC [1, 12]: 100%
herbicidal effect in percent, ALOMY [8]: 90%
herbicidal effect in percent, AMARE [2, 13]: 100%
herbicidal effect in percent, AMARE [2, 14]: 100%
herbicidal effect in percent, SETVI ([9]; 320 g/ha, assessed visually after ca. 3 weeks vs untreated controls (Table D8)): 90%
herbicidal effect in percent, SETVI ([9]; 1280 g/ha, assessed visually after ca. 3 weeks vs untreated controls (Table B7)): 100%
herbicidal effect in percent, SETVI [3, 15]: 100%
herbicidal effect in percent, SETVI [3, 16]: 100%
herbicidal effect in percent, ALOMY [10]: 100%
herbicidal effect in percent, DIGSA ([4]; 320 g/ha, visual grading after ca. 3 weeks vs untreated controls (Table C10)): 90%
herbicidal effect in percent, DIGSA [4, 17]: 90%
herbicidal effect in percent, POAAN [5, 18]: 100%
herbicidal effect in percent, POAAN [5, 19]: 100%
herbicidal effect in percent, MATIN [7, 20]: 100%
herbicidal effect in percent, MATIN [7, 21]: 100%

O=C(Nc1nc(Cl)ns1)c1c(C2CC2)ccnc1Cl [Example I-013]
herbicidal effect in percent, ALOMY [8]: 90%
herbicidal effect in percent, AMARE [2, 14]: 90%
herbicidal effect in percent, ABUTH [6]: 90%
herbicidal effect in percent, MATIN [7, 20]: 90%
herbicidal effect in percent, MATIN [7, 21]: 90%
